Data set [1] relates to mature cardiomyocytes (hiPSC-CMs) on AFC-ECM. How it is done: The cardiotoxicity and/or proarrhythmia testing can be conducted using any type of equipment suitable for measuring such activity. In some embodiments, the cellular constructs of monolayers of mature cardiomyocytes on AFC-ECM are prepared as described supra. After the maturation process (generally 7 days or less), the electrophysiology of each well is observed using a plate reader. A suitable voltage sensitive or calcium sensitive fluorescent dye is loaded into each well. Non-limiting voltage sensitive dyes include FluoVolt™ dye commercially available from ThermoFisher. In some embodiments, the plate reader can rely on a suitable high spatiotemporal CCD camera combined with suitable lighting, such as light emitting diodes (LEDs), of the appropriate wavelength to excite each dye. Such high spatiotemporal CCD cameras are commercially available from SciMeasure. In some embodiments, the camera image acquisition rate is greater than or equal to 150 frames per second. In some embodiments, the camera and lens combination are designed such that it allows visualization of all the wells of the multi-well plate simultaneously with sufficient resolution to observe action potential and calcium wave propagation. Each plate is centered under the camera system, lighting is switched on and camera acquisition is initiated and electrophysiological activity is recorded. Experiments are performed at about 37° C. After baseline readings are made, the drug to be tested is added to the wells and the effects are recorded. Spontaneous activity is recorded for a sufficient period of time to obtain images, e.g. at least 10 seconds. The images can be stored on a computer. Images are analyzed and action potential duration, conduction velocity, beat rate and activation patterns can be quantified using image analysis software. Visualization of electrical wave patterns is important to determine a drug compound's effect to cause potentially fatal arrhythmias, e.g., Torsades de Pointes (TdP). Thus, in addition to providing information on a compound's effect on spontaneous action potential duration, the methods disclosed herein can also provide information on impulse conduction velocity and activation pattern depending on the type of equipment used.
After the 7-day maturation process the electrophysiology of each well was observed using a plate reader using the following high throughput screen method. FluoVolt™ dye in Hanks Balanced Salt Solution was loaded into each well. A high spatiotemporal CCD camera (SciMeasure DaVinci camera) combined with light emitting diodes (LEDs) as shown in the schematic in FIG. 22. The camera and lens combination were designed such that it allowed visualization of all the wells of the 96-well plate simultaneously with sufficient resolution to observe action potential and calcium wave propagation. Each plate was centered under the camera system, lighting was switched on and camera acquisition was initiated and electrophysiological activity was recorded. Experiments were performed at about 37° C. Spontaneous activity was recorded for at least 10 seconds and images were stored on a computer. […] Images were analyzed and action potential duration, conduction velocity, beat rate and activation patterns were quantified using image analysis software.
The drugs were selected from the CiPA Initiative's list of compounds for validation and testing of CiPA and are classified as high risk, intermediate risk or low risk for causing fatal arrhythmias (TdPs) in patients.

The conditions of data set [2]: CiPA list: high, intermediate or low risk for causing fatal arrhythmias (TdPs) in patients; cited from earlier work.
Where [3] appears, read: mature cardiomyocytes on AFC-ECM, 96-well plates, plate reader, any arrhythmia detected over Dose 1-4.
Where [4] appears, read: mature cardiomyocytes on AFC-ECM, 96-well plates, at 10 times the effective therapeutic plasma concentration.

Where two headings read alike, the source gives them in different places.

As for `Cc1nc2n(c(=O)c1CCN1CCC(c3noc4cc(F)ccc34)CC1)CCCC2` [Risperidone], the “Arrhythmia Detected?” value in data set [1] is on record as “No”.
Turning to `O=C(CCCN1CC=C(n2c(=O)[nH]c3ccccc32)CC1)c1ccc(F)cc1` [Droperidol], in data set [1], the “APD90 Prolongation? @10X ETPC” value is “Yes” and the “Arrhythmia Detected?” value is recorded as “Yes, EAD”.
With `COc1cc2c(Nc3ccc(Br)cc3F)ncnc2cc1OCC1CCN(C)CC1` [Vandetanib], in data set [1], the “APD90 Prolongation? @10X ETPC” value is on record as “Yes” and the “Arrhythmia Detected?” value is listed as “Yes, EAD”. Besides, in data set [2], the “Risk Category” value is “High”.
Regarding `CC(C)N(CCC(C(N)=O)(c1ccccc1)c1ccccn1)C(C)C` (stereo not drawn) [Disopyramide], in data set [1], the “APD90 Prolongation? @10X ETPC” value is on record as “Yes” and the “Arrhythmia Detected?” value is given as “Yes, EAD, TA”.
In the case of `C=C[C@H]1C[N@@]2CC[C@H]1C[C@@H]2[C@@H](O)c1ccnc2ccc(OC)cc12` [Quinidine], in data set [1], the “APD90 Prolongation? @10X ETPC” value is on record as “Yes”. Besides, in data set [1] (setting [3]), the “Arrhythmia Detected?” value is “Yes, EAD”.
Turning to `COc1cc(N)c(Cl)cc1C(=O)NC1CCN(CCCOc2ccc(F)cc2)CC1OC` (stereo not drawn) [Cisapride], in data set [1], the “APD90 Prolongation? @10X ETPC” value is “No” and the “Arrhythmia Detected?” value is “Yes”. In addition, the “Risk Category” value in data set [2] was “Intermediate”.
For the molecule `CCOC(=O)N1CCC(=C2c3ccc(Cl)cc3CCc3cccnc32)CC1` [Loratadine], the “Arrhythmia Detected?” value in data set [1] (setting [3]) was “No”. Moreover, the “APD90 Prolongation? @10X ETPC” value in data set [1] (setting [4]) is reported as “No”.
Consider `COc1ccc(CCN(C)CCCC(C#N)(c2ccc(OC)c(OC)c2)C(C)C)cc1OC` (stereo not drawn) [Verapamil], for which, in data set [1], the “APD90 Prolongation? @10X ETPC” value is on record as “No, Shortening” and the “Arrhythmia Detected?” value is listed as “No”.
The like results for `COCCc1ccc(OCC(O)CNC(C)C)cc1` (stereo not drawn) [Metoprolol] were, in that order, “No” and “Yes,”.
In the case of `O=c1[nH]c2ccccc2n1CCCN1CCC(n2c(=O)[nH]c3cc(Cl)ccc32)CC1` [Domperidone], in data set [1], the “APD90 Prolongation? @10X ETPC” value is reported as “Yes” and the “Arrhythmia Detected?” value was “Yes, TA”.
The like results for `Cc1cccc(C)c1OCC(C)N` (stereo not drawn) [Mexiletine] were, in that order, “No” and “No”.
In the case of `CCCCCCCN(CC)CCCC(O)c1ccc(NS(C)(=O)=O)cc1` (stereo not drawn) [Ibutilide], in data set [1], the “APD90 Prolongation? @10X ETPC” value was “YeS” and the “Arrhythmia Detected?” value is reported as “Yes, EAD”. Besides, the “Risk Category” value in data set [2] is listed as “High”.
With `CCOC(=O)C1=C(C)NC(C)=C(C(=O)OC)C1c1cccc([N+](=O)[O-])c1` (stereo not drawn) [Nitrendipine], in data set [1], the “APD90 Prolongation? @10X ETPC” value is “No,” and the “Arrhythmia Detected?” value is recorded as “No”.
The matching figures for `CC(C)(C)c1ccc(C(O)CCCN2CCC(C(O)(c3ccccc3)c3ccccc3)CC2)cc1` (stereo not drawn) [Terfenadine]: “Yes” and “No”.
With `COc1ccc([C@@H]2Sc3ccccc3N(CCN(C)C)C(=O)[C@@H]2OC(C)=O)cc1` [Diltiazem], in data set [1], the “APD90 Prolongation? @10X ETPC” value is “No, shortening” and the “Arrhythmia Detected?” value is “No”.
As to `CN(CCOc1ccc(NS(C)(=O)=O)cc1)CCc1ccc(NS(C)(=O)=O)cc1` [Dofetilide], in data set [1], the “APD90 Prolongation? @10X ETPC” value is recorded as “Yes” and the “Arrhythmia Detected?” value is reported as “Yes, EAD”.
Turning to `CN1CCN(C2=Nc3cc(Cl)ccc3Nc3ccccc32)CC1` [Clozapine], in data set [1], the “APD90 Prolongation? @10X ETPC” value is reported as “Yes” and the “Arrhythmia Detected?” value is reported as “No”.
On to `COc1ccc(CCN2CCC(Nc3nc4ccccc4n3Cc3ccc(F)cc3)CC2)cc1` [Astemizole], for which, in data set [1], the “APD90 Prolongation? @10X ETPC” value is “Yes” and the “Arrhythmia Detected?” value is reported as “Yes”.
Regarding `CN1CCN(CCCCN2C(=O)CN(/N=C/c3ccc(-c4ccc(Cl)cc4)o3)C2=O)CC1` [Azimilide], in data set [1], the “APD90 Prolongation? @10X ETPC” value is listed as “Yes” and the “Arrhythmia Detected?” value is given as “Yes, EAD”. The “Risk Category” value in data set [2] was “High”.
Consider `CC(C)COCC(CN(Cc1ccccc1)c1ccccc1)N1CCCC1` (stereo not drawn) [Bepridil], for which, in data set [1], the “APD90 Prolongation? @10X ETPC” value was “Yes” and the “Arrhythmia Detected?” value is given as “Yes, Q”. For the same molecule, the “Risk Category” value in data set [2] was “High”.
As to `O=c1[nH]c2ccccc2n1C1CCN(CCCC(c2ccc(F)cc2)c2ccc(F)cc2)CC1` [Pimozide], in data set [1], the “APD90 Prolongation? @10X ETPC” value was “No” and the “Arrhythmia Detected?” value is recorded as “Yes”.
The like results for `CC/C(=C(\c1ccccc1)c1ccc(OCCN(C)C)cc1)c1ccccc1` [Tamoxifen] were, in that order, “No” and “No”.
`Cc1nccn1CC1CCc2c(c3ccccc3n2C)C1=O` (stereo not drawn) [Ondansetron]: in data set [1], the “APD90 Prolongation? @10X ETPC” value is “Yes” and the “Arrhythmia Detected?” value was “Yes, EAD”. In addition, the “Risk Category” value in data set [2] is “Intermediate”.
Regarding `CC(C)NCC(O)c1ccc(NS(C)(=O)=O)cc1` (stereo not drawn) [D, I Sotalol], in data set [1] (setting [3]), the “Arrhythmia Detected?” value is given as “Yes, EAD”. Moreover, in data set [1] (setting [4]), the “APD90 Prolongation? @10X ETPC” value is listed as “Yes”. In addition, in data set [2], the “Risk Category” value was “High”.
With `COc1ccccc1OCC(O)CN1CCN(CC(=O)Nc2c(C)cccc2C)CC1` (stereo not drawn) [Ranolazine], in data set [1], the “APD90 Prolongation? @10X ETPC” value is recorded as “No” and the “Arrhythmia Detected?” value is reported as “No”. For the same molecule, the “Risk Category” value in data set [2] is given as “Low”.

The record behind these values is patent publication US11220671B2, “Methods for the maturation of cardiomyocytes on amniotic fluid cell-derived ECM, cellular constructs, and uses for cardiotoxicity and proarrhythmic screening of drug compounds” (STEMBIOSYS, INC., priority 2019, dated 2022).
